Test system: UWB1 cells
Test: cells
Settings: read-out: IC50 (μM) UWB1 cells

Compared with `COC(=O)C[C@H]1[C@@H]2CC3=C(C)[C@H](c4ccc(O[Si](C)(C)C(C)(C)C)cc4)C[C@H]3O[C@@H]2[C@@H]2OC(=O)[C@]3(C)C=CC(=O)[C@@]1(C)[C@@H]23` [S-118], `COC(=O)C[C@H]1[C@@H]2CC3=C(C)[C@@H](c4cccc(O[Si](C)(C)C(C)(C)C)c4)C[C@@H]3O[C@@H]2[C@@H]2OC(=O)[C@]3(C)C=CC(=O)[C@@]1(C)[C@@H]23` [S-116] is 1.8-fold higher in IC50: 0.0815 µM for the first, 0.15 µM for the second. The first is the more potent here.

`COC(=O)C[C@H]1[C@@H]2CC3=C(C)[C@H](c4ccccc4O[Si](C)(C)C(C)(C)C)C[C@H]3O[C@@H]2[C@@H]2OC(=O)[C@]3(C)C=CC(=O)[C@@]1(C)[C@@H]23` [S-129] and `COC(=O)C[C@H]1[C@@H]2CC3=C(C)[C@H](c4cccc(O[Si](C)(C)C(C)(C)C)c4)C[C@@H]3O[C@@H]2[C@@H]2OC(=O)[C@]3(C)C=CC(=O)[C@@]1(C)[C@@H]23` [S-113] are within 1.5-fold of each other in IC50: 0.163 µM for the first, 0.216 µM for the second.

`COC(=O)C[C@H]1[C@]2(C)C3=C(C)[C@@H](c4cccc(O[Si](C)(C)C(C)(C)C)c4)C[C@H]3O[C@@H]2[C@@H]2OC(=O)[C@]3(C)C=CC(=O)[C@@]1(C)[C@@H]23` [S-114] and `COC(=O)C[C@H]1[C@]2(C)C3=C(C)[C@H](c4cccc(O[Si](C)(C)C(C)(C)C)c4)C[C@H]3O[C@@H]2[C@@H]2OC(=O)[C@]3(C)C=CC(=O)[C@@]1(C)[C@@H]23` [S-112] are within 1.5-fold of each other in IC50: 0.242 µM for the first, 0.219 µM for the second.

`COC(=O)C[C@H]1[C@]2(C)C3=C(C)[C@@H](c4ccc(O[Si](C)(C)C(C)(C)C)cc4)C[C@H]3O[C@@H]2[C@@H]2OC(=O)[C@]3(C)C=CC(=O)[C@@]1(C)[C@@H]23` (stereo in doubt) [S-120] and `COC(=O)C[C@H]1[C@]2(C)C3=C(C)[C@H](c4ccc(CO[Si](C)(C)C(C)(C)C)cc4)C[C@H]3O[C@@H]2[C@@H]2OC(=O)[C@]3(C)C=CC(=O)[C@@]1(C)[C@@H]23` [S-146] are within 1.5-fold of each other in IC50: 0.165 µM for the first, 0.18 µM for the second.

In the case of `COC(=O)C[C@H]1[C@@H]2CC3=C(C)[C@H](c4ccc(CO[Si](C)(C)C(C)(C)C)cc4)C[C@@H]3O[C@@H]2[C@@H]2OC(=O)[C@]3(C)C=CC(=O)[C@@]1(C)[C@@H]23` [S-147], the IC50 is reported as 0.192 µM.

Same assay, conditions: read-out: IC50 (μM) UWB1 cells, UWB1 cell viability

Going from `COC(=O)C[C@H]1[C@@H]2CC3=C(C)[C@H](c4ccc(OC(=O)C(C)(C)C)cc4)C[C@@H]3O[C@@H]2[C@@H]2OC(=O)[C@]3(C)C=CC(=O)[C@@]1(C)[C@@H]23` [S-126] to `COC(=O)C[C@H]1[C@@H]2CC3=C(C)[C@H](c4ccc(C(C)(C)C)cc4)C[C@H]3O[C@@H]2[C@@H]2OC(=O)[C@]3(C)C=CC(=O)[C@@]1(C)[C@@H]23` [S-143], the IC50 rises from 0.141 µM to 0.238 µM (1.7-fold).

`COC(=O)C[C@H]1[C@]2(C)C3=C(C)[C@H](c4ccoc4)C[C@H]3O[C@@H]2[C@H](OC(C)=O)[C@H]2C(C)=CCC(=O)[C@]12C` [S-62, nimbinene] and `COC(=O)C[C@H]1[C@]2(C)C3=C(C)[C@H](c4ccoc4)C[C@H]3O[C@@H]2[C@H](O)[C@H]2C(C)=CCC(=O)[C@]12C` [S-61, 6-deacetylnimbinene] cannot be ordered by IC50: > 10 µM for the first, > 10 µM for the second.

Going from `COC(=O)C[C@H]1[C@]2(C)C3=C(C)[C@H](c4ccoc4-c4ccc(C(=O)O)cc4)C[C@H]3O[C@@H]2[C@@H]2OC(=O)[C@]3(C)C=CC(=O)[C@@]1(C)[C@@H]23` [S-58] to `COC(=O)C[C@H]1[C@]2(C)C3=C(C)[C@H](c4ccoc4-c4ccc(C(=O)OC)cc4)C[C@H]3O[C@@H]2[C@@H]2OC(=O)[C@]3(C)C=CC(=O)[C@@]1(C)[C@@H]23` [S-59], the IC50 falls from 1.79 µM to 0.203 µM (8.8-fold). The second is the more potent here.

Going from `COC(=O)C[C@H]1[C@]2(C)C3=C(C)[C@H](c4ccoc4)C[C@H]3O[C@@H]2[C@@H]2OC(=O)[C@]3(C)C=C[C@@H](O)[C@@]1(C)[C@@H]23` [S-55] to `COC(=O)C[C@H]1[C@]2(C)C3=C(C)[C@H](c4ccccc4)C[C@H]3O[C@@H]2[C@@H]2OC(=O)[C@]3(C)C=CC(=O)[C@@]1(C)[C@@H]23` [S-101], the IC50 falls from > 10 µM to 0.3 µM. The second is the more potent here.

`COC(=O)C[C@H]1[C@]2(C)C3=C(C)[C@H](C4=CC(=O)OC4OC(C)=O)C[C@H]3O[C@@H]2[C@@H]2OC(=O)[C@]3(C)C=CC(=O)[C@@]1(C)[C@@H]23` (some centres unmarked) [S-50] and `COC(=O)C[C@H]1[C@]2(C)C3=C(C)[C@H](C4=CCOC4=O)C[C@H]3O[C@@H]2[C@@H]2OC(=O)[C@]3(C)C=CC(=O)[C@@]1(C)[C@@H]23` [S-131] are within 1.5-fold of each other in IC50: 1.04 µM for the first, 1.18 µM for the second.

Compared with `COC(=O)C[C@H]1[C@]2(C)C3=C(C)[C@H](c4ccoc4-c4ccc5c(c4)OCO5)C[C@H]3O[C@@H]2[C@@H]2OC(=O)[C@]3(C)C=CC(=O)[C@@]1(C)[C@@H]23` [S-44], `COC(=O)C[C@H]1[C@]2(C)C3=C(C)[C@H](c4ccoc4-c4ccc(C=O)cc4)C[C@H]3O[C@@H]2[C@@H]2OC(=O)[C@]3(C)C=CC(=O)[C@@]1(C)[C@@H]23` [S-45] is 1.5-fold lower in IC50: 0.383 µM for the first, 0.251 µM for the second.

`COC(=O)C[C@H]1[C@@H]2CC3=C(C)[C@@H](c4ccc(OS(=O)(=O)c5ccc(C)cc5)cc4)C[C@@H]3O[C@@H]2[C@@H]2OC(=O)[C@]3(C)C=CC(=O)[C@@]1(C)[C@@H]23` [S-140] and `COC(=O)C[C@H]1[C@@H]2CC3=C(C)[C@@H](c4ccc(OS(=O)(=O)c5c(C)cc(C)cc5C)cc4)C[C@@H]3O[C@@H]2[C@@H]2OC(=O)[C@]3(C)C=CC(=O)[C@@]1(C)[C@@H]23` [S-139] are within 1.5-fold of each other in IC50: 0.119 µM for the first, 0.14 µM for the second.

Compared with `COC(=O)C[C@H]1[C@@H]2CC3=C(C)[C@@H](c4ccc(C=O)cc4)C[C@@H]3O[C@@H]2[C@@H]2OC(=O)[C@]3(C)C=CC(=O)[C@@]1(C)[C@@H]23` [S-151], `COC(=O)C[C@H]1[C@@H]2CC3=C(C)[C@@H](c4ccc(OC)cc4)C[C@@H]3O[C@@H]2[C@@H]2OC(=O)[C@]3(C)C=CC(=O)[C@@]1(C)[C@@H]23` [S-109] is 4.5-fold lower in IC50: 0.766 µM for the first, 0.17 µM for the second. The second is the more potent here.

`COC(=O)C[C@H]1[C@]2(C)C3=C(C)[C@@H](c4ccc(C(C)(C)C)cc4)C[C@H]3O[C@@H]2[C@@H]2OC(=O)[C@]3(C)C=CC(=O)[C@@]1(C)[C@@H]23` [S-145] and `COC(=O)C[C@H]1[C@]2(C)C3=C(C)[C@H](c4ccc(-c5cc(C(C)(C)C)cc(C(C)(C)C)c5)cc4)C[C@H]3O[C@@H]2[C@@H]2OC(=O)[C@]3(C)C=CC(=O)[C@@]1(C)[C@@H]23` [S-132] are within 1.5-fold of each other in IC50: 0.157 µM for the first, 0.142 µM for the second.

First: C=C1[C@H](O[C@H]2C=C(C)[C@H](c3ccoc3)C2)[C@@H]2OC(=O)[C@]3(C)C=CC(=O)[C@@](C)([C@@H]23)[C@H]1CC(=O)OC [S-54]
Second: COC(=O)C[C@H]1[C@@H]2CC3=C(C)[C@@H](c4ccoc4)C[C@@H]3O[C@@H]2[C@@H]2OC(=O)[C@]3(C)C=CC(=O)[C@@]1(C)[C@@H]23 [S-99]
The IC50 of the first is 3.3-fold lower: 0.265 µM for the first, 0.88 µM for the second. The first is the more potent here.

`COC(=O)C[C@H]1[C@@H]2CC3=C(C)[C@H](c4ccc(C(C)(C)C)cc4)C[C@@H]3O[C@@H]2[C@@H]2OC(=O)[C@]3(C)C=CC(=O)[C@@]1(C)[C@@H]23` [S-142] and `COC(=O)C[C@H]1[C@@H]2CC3=C(C)[C@@H](c4ccc(C(C)(C)C)cc4)C[C@@H]3O[C@@H]2[C@@H]2OC(=O)[C@]3(C)C=CC(=O)[C@@]1(C)[C@@H]23` [S-144] are within 1.5-fold of each other in IC50: 0.145 µM for the first, 0.14 µM for the second.

Compared with `COC(=O)C[C@H]1[C@]2(C)C3=C(C)CC[C@H]3O[C@@H]2[C@@H]2OC(=O)[C@]3(C)C=CC(=O)[C@@]1(C)[C@@H]23` [S-97], `COC(=O)C[C@H]1[C@]2(C)C3=C(C)[C@H](C4CCCCC4)C[C@H]3O[C@@H]2[C@@H]2OC(=O)[C@]3(C)C=CC(=O)[C@@]1(C)[C@@H]23` [S-104] is 6.9-fold lower in IC50: 1.45 µM for the first, 0.21 µM for the second.

First: COC(=O)C[C@@H]1[C@@]2(C)C(=O)C=C[C@@]3(C)C(=O)O[C@@H]([C@H]4O[C@H]5CC(c6ccoc6)=C(C)[C@]56C[C@@]416)[C@H]23 [S-65]
Second: CC1=C2C[C@@H]3[C@H](O[C@@H]2C[C@H]1c1ccoc1)[C@@H]1OC(=O)[C@]2(C)C=CC(=O)[C@@](C)([C@@H]12)[C@H]3CC(=O)OC(C)(C)C [S-155]
The IC50 of the first is higher: > 10 µM for the first, 0.306 µM for the second.

`COC(=O)C[C@H]1[C@]2(C)C3=C(C)[C@H](c4ccoc4-c4ccc(C(=O)NC(C)(C)C)cc4)C[C@H]3O[C@@H]2[C@@H]2OC(=O)[C@]3(C)C=CC(=O)[C@@]1(C)[C@@H]23` [S-52] and `COC(=O)C[C@H]1[C@]2(C)C3=C(C)[C@H](c4ccoc4-c4ccc([N+](=O)[O-])cc4)C[C@H]3O[C@@H]2[C@@H]2OC(=O)[C@]3(C)C=CC(=O)[C@@]1(C)[C@@H]23` [S-49] are within 1.5-fold of each other in IC50: 0.199 µM for the first, 0.194 µM for the second.

`COC(=O)C[C@H]1[C@@H]2CC3=C(C)[C@H](c4ccc(-c5cc(C(C)(C)C)cc(C(C)(C)C)c5)cc4)C[C@H]3O[C@@H]2[C@@H]2OC(=O)[C@]3(C)C=CC(=O)[C@@]1(C)[C@@H]23` [S-133] and `COC(=O)C[C@H]1[C@]2(C)C3=C(C)[C@@H](c4ccc(-c5cc(C(C)(C)C)cc(C(C)(C)C)c5)cc4)C[C@H]3O[C@@H]2[C@@H]2OC(=O)[C@]3(C)C=CC(=O)[C@@]1(C)[C@@H]23` [S-135] are within 1.5-fold of each other in IC50: 0.186 µM for the first, 0.185 µM for the second.

First: C=C1[C@H](O)[C@H](O)[C@@H]2[C@](C)(C(=O)C=C[C@@]2(C)C(=O)OC)[C@H]1CC(=O)OC [S-16-b]
Second: C=C1[C@H](O[C@H]2CCC(C(C)C)=C2I)[C@@H]2OC(=O)[C@]3(C)C=CC(=O)[C@@](C)([C@@H]23)[C@H]1CC(=O)OC [S-111]
The IC50 of the first is higher: > 10 µM for the first, 0.255 µM for the second.

`COC(=O)C[C@H]1[C@@H]2CC3=C(C)[C@H](C4CCCCC4)C[C@@H]3O[C@@H]2[C@@H]2OC(=O)[C@]3(C)C=CC(=O)[C@@]1(C)[C@@H]23` [S-105] and `COC(=O)C[C@H]1[C@@H]2CC3=C(C)[C@@H](C4CCCCC4)C[C@@H]3O[C@@H]2[C@@H]2OC(=O)[C@]3(C)C=CC(=O)[C@@]1(C)[C@@H]23` [S-106] are within 1.5-fold of each other in IC50: 0.2 µM for the first, 0.16 µM for the second.

`COC(=O)C[C@H]1[C@@H]2CC3=C(C)[C@H](c4ccccc4)C[C@@H]3O[C@@H]2[C@@H]2OC(=O)[C@]3(C)C=CC(=O)[C@@]1(C)[C@@H]23` [S-102] and `COC(=O)C[C@H]1[C@@H]2CC3=C(C)[C@H](c4ccc(OS(=O)(=O)C(F)(F)F)cc4)C[C@@H]3O[C@@H]2[C@@H]2OC(=O)[C@]3(C)C=CC(=O)[C@@]1(C)[C@@H]23` [S-130] are within 1.5-fold of each other in IC50: 0.17 µM for the first, 0.225 µM for the second.

Compared with `COC(=O)C[C@H]1[C@]2(C)C3=C(C)[C@H](c4ccoc4-c4cccc5c4ccn5C)C[C@H]3O[C@@H]2[C@@H]2OC(=O)[C@]3(C)C=CC(=O)[C@@]1(C)[C@@H]23` [S-42], `COC(=O)C[C@H]1[C@@H]2CC3=C(C)[C@@H](c4ccc(C(=O)NC(C)(C)C)cc4)C[C@@H]3O[C@@H]2[C@@H]2OC(=O)[C@]3(C)C=CC(=O)[C@@]1(C)[C@@H]23` [S-153] is 1.7-fold higher in IC50: 0.144 µM for the first, 0.245 µM for the second. The first is the more potent here.

From patent US20240336622A1 (The Board of Regents of The University of Texas System, priority 2021, published 2024)
